Experimental findings from ChEMBL document CHEMBL3822373, “An evolved oxazolidinone with selective potency against Mycobacterium tuberculosis and gram positive bacteria” (2016) are described below.

In general, MIC90 refers to the lowest concentration that inhibits either 90% of growth or 90% of the strains tested, depending on the study.

The test system of assay [1] is Enterococcus faecalis. Put plainly: Potentiation of biapenem-induced antibacterial activity against Enterococcus faecalis ATCC 19433 at <0.5 times MIC90 by checkboard titration assay. Type of assay: functional.
Assay [2] concerns Acinetobacter baumannii. Put plainly: Antibacterial activity against Acinetobacter baumannii ACBA measured after 18 hrs by broth microdilution assay. In kind it is functional.
The test system of assay [3] is Acinetobacter baumannii. Description: Antibacterial activity against Acinetobacter baumannii 6M-1b measured after 18 hrs by broth microdilution assay. Type of assay: functional. (In general: Dilution methods test growth across graded concentrations, often in twofold steps.)
Assay [4] has as its system Mycobacterium tuberculosis. Put plainly: Potentiation of isoniazid-induced antibacterial activity against Mycobacterium tuberculosis H37Rv by checkboard titration assay. In kind it is functional, organism-based.
The subject of assay [5] is Mycobacterium tuberculosis. Description: Antibacterial activity against […] Mycobacterium tuberculosis H37Rv measured after 14 days by broth microdilution assay. In kind it is functional. Conditions: 336 h.
For assay [6], the system named is Staphylococcus aureus. Put plainly: Potentiation of biapenem-induced antibacterial activity against Staphylococcus aureus ATCC 29213 at <0.5 times MIC90 by checkboard titration assay. Type of assay: functional, organism-based.
Assay [7] has as its system Staphylococcus aureus. Put plainly: Potentiation of tabipenem-induced antibacterial activity against Staphylococcus aureus ATCC 29213 at <0.5 times MIC90 by checkboard titration assay. In kind it is functional, organism-based.
The test system of assay [8] is Enterococcus faecalis. Description: Bactericidal activity against Enterococcus faecalis ATCC 19433 up to 8 times MIC90 measured after 2 days by broth microdilution assay. Type of assay: functional.
The next assay concerns Mycobacterium avium. Put plainly: Antibacterial activity against Mycobacterium avium 104 measured after 7 days by broth microdilution assay. The conditions noted are these: Mycobacterium avium, 104, 168 h. In kind it is functional.
The subject of assay [9] is Mycobacteroides abscessus. Description: Antibacterial activity against Mycobacterium abscessus ATCC 19977 measured after 3 days by broth microdilution assay. The conditions noted are these: ATCC 19977, 72 h. Type of assay: functional.
Assay [10] concerns Mycobacterium tuberculosis. Put plainly: Antibacterial activity against Mycobacterium tuberculosis 124R measured after 14 days by broth microdilution assay. Type of assay: functional. The conditions noted are these: 336 h.
In the next assay the test system is Enterobacter cloacae. Description: Antibacterial activity against Enterobacter cloacae ATCC 13047 measured after 18 hrs by broth microdilution assay. Type of assay: functional. The conditions noted are these: ATCC 13047, 18 h.
Assay [11] has as its system Mycobacterium tuberculosis. Put plainly: Antibacterial activity against Mycobacterium tuberculosis 115R measured after 14 days by broth microdilution assay. In kind it is functional. Conditions: 336 h.
Assay [12] has as its system Mycobacterium tuberculosis. Put plainly: Bactericidal activity against Mycobacterium tuberculosis H37Rv measured after 21 days by broth microdilution assay. Type of assay: functional. Conditions: 504 h, read-out: MBC99.9.
Assay [13] has as its system Enterococcus faecalis. Description: Potentiation of tabipenem-induced antibacterial activity against Enterococcus faecalis ATCC 19433 at <0.5 times MIC90 by checkboard titration assay. In kind it is functional.
The next assay deals with Klebsiella pneumoniae. Put plainly: Antibacterial activity against Klebsiella pneumoniae ATCC 35657 measured after 18 hrs by broth microdilution assay. In kind it is functional. The conditions noted are these: ATCC 35657, 18 h.
For assay [14], the system named is Staphylococcus aureus. Description: Bacteriostatic activity against […] Staphylococcus aureus ATCC 29213 assessed as prevention of spontaneous resistant mutant selection up to 60 times MIC90 measured after 5 weeks. In kind it is functional, organism-based.
For assay [15], the system named is Enterococcus faecalis. Put plainly: Bacteriostatic activity against Enterococcus faecalis ATCC 19433 assessed as prevention of spontaneous resistant mutant selection up to 60 times MIC90 measured after 5 weeks. Type of assay: functional.
Assay [16] has as its system Enterococcus faecalis. Description: Potentiation of faropenem-induced antibacterial activity against Enterococcus faecalis ATCC 19433 at <0.5 times MIC90 by checkboard titration assay. Type of assay: functional.
The next assay relates to Pseudomonas aeruginosa. Description: Antibacterial activity against Pseudomonas aeruginosa PA14 measured after 18 hrs by broth microdilution assay. In kind it is functional. Conditions: PA14, 18 h.
Assay [17] has as its system Staphylococcus aureus. Put plainly: Antibacterial activity against […] Staphylococcus aureus ATCC 29213 measured after 18 hrs by broth microdilution assay. Type of assay: functional. Conditions: ATCC 29213, 18 h.
For assay [18], the system named is Mycobacterium tuberculosis. Description: Potentiation of rifampicin-induced antibacterial activity against Mycobacterium tuberculosis H37Rv by checkboard titration assay. Type of assay: functional, organism-based.
The subject of assay [19] is Staphylococcus aureus. Description: Potentiation of faropenem-induced antibacterial activity against Staphylococcus aureus ATCC 29213 at <0.5 times MIC90 by checkboard titration assay. Type of assay: functional, organism-based.
For assay [20], the system named is Enterococcus faecalis. Put plainly: Antibacterial activity against Enterococcus faecalis ATCC 19433 measured after 18 hrs by broth microdilution assay. Type of assay: functional. The conditions noted are these: ATCC 19433, 18 h.
The subject of assay [21] is Acinetobacter baumannii. Put plainly: Antibacterial activity against Acinetobacter baumannii ATCC 19606 measured after 18 hrs by broth microdilution assay. In kind it is functional. Conditions: ATCC 19606, 18 h.
Assay [22] has as its system Staphylococcus aureus. Put plainly: Bactericidal activity against Staphylococcus aureus ATCC 29213 up to 8 times MIC90 measured after 2 days by broth microdilution assay. Type of assay: functional, organism-based.
The test system of assay [23] is Mycobacterium tuberculosis. Put plainly: Antibacterial activity against Mycobacterium tuberculosis. In kind it is functional.

In brackets after ≈: the same amount, converted by molar mass. Activity calls are given as the source filed them. No cut-off for these calls is given here.

As for `CC(=O)NC[C@H]1CN(c2ccc3c(c2)Oc2ccccc2O3)C(=O)O1`, the result (in the assay on Enterococcus faecalis [1]; in [4]; with Staphylococcus aureus [6]; in the assay with Staphylococcus aureus [7]; in the assay on Enterococcus faecalis [8]; with Enterococcus faecalis [13]) was inactive. Further, the outcome (in the assay with Enterococcus faecalis [16]; in [18]; in the assay on Staphylococcus aureus [19]; in the assay with Staphylococcus aureus [22]) was inactive. The MIC90 is greater than 64 µg/mL against Acinetobacter baumannii [2]; 0.25 µg/mL (≈ 0.735 µM) in the assay with Acinetobacter baumannii [3]; 0.5 µg/mL (≈ 1.47 µM) in assay [5]; greater than 64 µg/mL against Mycobacterium avium; greater than 64 µg/mL in assay [9]; 0.5 µg/mL (≈ 1.47 µM) in [10]. Further, the MIC90 against Enterobacter cloacae was greater than 64 µg/mL; in assay [11] it was 0.5 µg/mL (≈ 1.47 µM); in the assay with Klebsiella pneumoniae it was greater than 64 µg/mL; in the assay on Pseudomonas aeruginosa, greater than 64 µg/mL; in the assay on Staphylococcus aureus [17], 0.5 µg/mL (≈ 1.47 µM); with Enterococcus faecalis [20] it was 0.25 µg/mL (≈ 0.735 µM). In addition, the MIC90 against Acinetobacter baumannii [21] was 32 µg/mL (≈ 94 µM). In addition, in assay [12], the MBC turned out to be 2 µg/mL (≈ 5.88 µM). Besides, the outcome with Staphylococcus aureus [14] and in the assay with Enterococcus faecalis [15] was Active.

Consider `C[C@@H](O)[C@H]1C(=O)N2C(C(=O)[O-])=C(SC3Cn4cnc[n+]4C3)[C@H](C)[C@H]12` (stereo partly specified) [BIAPENEM], for which the MIC90 in assay [23] was 2.5 µg/mL (≈ 7.13 µM); against Staphylococcus aureus [17] it was 0.007 µg/mL (≈ 0.02 µM); against Enterococcus faecalis [20], 0.25 µg/mL (≈ 0.713 µM).

Take `C[C@@H](O)[C@H]1C(=O)N2C(C(=O)O)=C([C@H]3CCCO3)S[C@H]12` [FAROPENEM]: the MIC90 in assay [23] was 2.5 µg/mL (≈ 8.76 µM); in the assay on Staphylococcus aureus [17], 0.015 µg/mL (≈ 0.0526 µM); against Enterococcus faecalis [20], 0.25 µg/mL (≈ 0.876 µM).

For the compound `CC(=O)NC[C@H]1CN(c2ccc(N3CCOCC3)c(F)c2)C(=O)O1` [LINEZOLID], the MIC90 in the assay with Acinetobacter baumannii [2] is greater than 64 µg/mL; against Acinetobacter baumannii [3], 0.25 µg/mL (≈ 0.741 µM); in assay [5] it was 0.2 µg/mL (≈ 0.593 µM); in assay [10] it was 0.25 µg/mL (≈ 0.741 µM); against Enterobacter cloacae, greater than 64 µg/mL; in assay [11] it was 0.25 µg/mL (≈ 0.741 µM). Further, the MIC90 is 16 µg/mL (≈ 47.4 µM) against Klebsiella pneumoniae; greater than 64 µg/mL in the assay with Pseudomonas aeruginosa; 1 µg/mL (≈ 2.96 µM) with Staphylococcus aureus [17]; 1 µg/mL (≈ 2.96 µM) with Enterococcus faecalis [20]; greater than 64 µg/mL with Acinetobacter baumannii [21].

Regarding `C[C@@H](O)[C@H]1C(=O)N2C(C(=O)O)=C(S[C@@H]3CN[C@H](C(=O)N(C)C)C3)[C@H](C)[C@H]12` [MEROPENEM], the MIC90 is greater than 64 µg/mL against Acinetobacter baumannii [2]; 1 µg/mL (≈ 2.61 µM) in the assay on Acinetobacter baumannii [3]; 4 µg/mL (≈ 10.4 µM) in [5]; greater than 64 µg/mL in the assay on Mycobacterium avium; greater than 64 µg/mL in [9]; 8 µg/mL (≈ 20.9 µM) in assay [10]. Also, the MIC90 in the assay with Enterobacter cloacae was 0.13 µg/mL (≈ 0.339 µM); in assay [11], 8 µg/mL (≈ 20.9 µM); in the assay on Klebsiella pneumoniae it was less than 0.06 µg/mL; against Pseudomonas aeruginosa, 0.25 µg/mL (≈ 0.652 µM); against Staphylococcus aureus [17] it was 0.06 µg/mL (≈ 0.156 µM); against Enterococcus faecalis [20] it was 4 µg/mL (≈ 10.4 µM). In the assay with Acinetobacter baumannii [21], this compound returned an MIC90 greater than 64 µg/mL.

For `CO[C@H]1/C=C/O[C@@]2(C)Oc3c(C)c(O)c4c(O)c(c(/C=N/N5CCN(C)CC5)c(O)c4c3C2=O)NC(=O)/C(C)=C\C=C\[C@H](C)[C@H](O)[C@@H](C)[C@@H](O)[C@@H](C)[C@H](OC(C)=O)[C@@H]1C` [RIFAMPIN], the MIC90 in [10] came to 128 µg/mL (≈ 156 µM); in assay [11], 4 µg/mL (≈ 4.86 µM).

With `C[C@@H](O)[C@H]1C(=O)N2C(C(=O)O)=C(SC3CN(C4=NCCS4)C3)[C@H](C)[C@H]12` [TEBIPENEM], the MIC90 in assay [23] was 1.25 µg/mL (≈ 3.26 µM); against Staphylococcus aureus [17] it was 0.03 µg/mL (≈ 0.0782 µM); against Enterococcus faecalis [20] it was 0.25 µg/mL (≈ 0.652 µM).
